# Results: ChEMBL document CHEMBL1148892, “Evaluation of in vitro aldose redutase inhibitory activity of 5-arylidene-2,4-thiazolidinediones” (Bioorg Med Chem Lett, 2007)
# Molecular target: Aldo-keto reductase family 1 member B1 (Bos taurus) (UniProt P16116)
# Experiment: Inhibition of bovine aldose reductase at 12.5 uM
row,inhibition,SMILES
1,33%,COc1ccc(/C=C2\SC(=O)NC2=O)cc1O

# Molecular target: Aldo-keto reductase family 1 member B1 (Bos taurus, UniProt P16116)
# Experiment: Inhibition of bovine aldose reductase
row,SMILES,IC50
1,COc1cc(/C=C2\SC(=O)NC2=O)ccc1O,11800 nM
2,O=C(O)COc1cccc(/C=C2\SC(=O)N(CC(=O)O)C2=O)c1,230 nM

# The next lines start with the values.
row,IC50,SMILES
1,700 nM,COc1cc(/C=C2\SC(=O)N(CC(=O)O)C2=O)ccc1O
2,600 nM,O=C(O)COc1ccc(/C=C2\SC(=O)N(CC(=O)O)C2=O)cc1
3,560 nM,COc1ccc(/C=C2\SC(=O)N(CC(=O)O)C2=O)cc1O
4,260 nM,COc1cc(/C=C2\SC(=O)N(CC(=O)O)C2=O)ccc1OCC(=O)O
